Source: patent US8168597B2, “Method for treating cystic fibrosis” (Inspire Pharmaceuticals, Inc., priority 2008, dated 2012)

B1: Pulmozyme: CF medication taken as usual standard of care (alfa dornase) (protein, UniProt P24855 23-282, looked up)
Deoxyribonuclease-1: LKIAAFNIQTFGETKMSNATLVSYIVQILSRYDIALVQEVRDSHLTAVGKLLDNLNQDAPDTYHYVVSEPLGRNSYKERYLFVYRPDQVSAVDSYYYDDGCEPCGNDTFNREPAIVRFFSRFTEVREFAIVPLHAAPGDAVAEIDALYDVYLDVQEKWGLEDVMLMGDFNAGCSYVRPSQWSSIRLWTSPTFQWLIPDSADTTATPTHCAYDRIVVAGMLLRGAVVPDSALPFNFQAAYGLSDQLAQAISDHYPVEVMLK

Test system: patients with mild CF lung disease
Assay: Multi-center, double-blind, randomized efficacy and safety study; change in lung function (FEV1) from baseline to Week 24
Assay type: in vivo, human
Details: for FEV1 Change from baseline in Liters, Mean (Table 3): pulmozyme/macrolide subgroups; for FEV1 Change from baseline in Liters, Mean (Table 2): subgroups that did not take pulmozyme or inhaled antibiotics
Method: This is a multi-center, double-blind, randomized, efficacy and safety study of denufosol in patients with mild CF lung disease. Approximately 350 patients were enrolled and randomly assigned to receive one of two treatments, 60 mg denufosol TID or placebo TID, with approximately 175 patients assigned to each treatment group. Patients were administered study drug (denufosol) or placebo using the PARI LC STAR™ nebulizer and PART PRONEB Ultra™ compressor. At the end of the 24-week double-blind, placebo-controlled treatment period, placebo patients received 60 mg denufosol for a 24-week safety extension period. All patients on denufosol during the first 24 weeks continued to receive denufosol during the 24-week safety extension. Upon completion of study participation or discontinuation from study treatment, all patients were scheduled for a 1-week follow-up visit.
In general, CF patients took many medications as their usual standard of care. This study was designed to randomly assign patients either to denufosol or placebo on top of their usual standard of care. […] Patients were instructed whenever possible to use these medications consistently throughout the study.
All patients were instructed to inhale the study drug using normal tidal breathing via the PARI LC STAR™ reusable nebulizer and the PARI PRONEB™ Ultra compressor. A dose was considered complete after 15 minutes of inhalation or when the nebulizer sputters. Study drug was taken TID at the same time each day.
Primary efficacy endpoint was change in lung function, as measured by FEV1 (L), from baseline to Week 24 end point. Missing Week 24 data for patients who withdrew prior to Week 24 were imputed from the last available observation carried forward. Secondary efficacy endpoints included the following: time to first pulmonary exacerbation during the 24-week placebo-controlled treatment period; incidence of pulmonary exacerbations during the 24-week placebo-controlled treatment period; number of pulmonary exacerbations/time at risk (incidence density) during the 24-week placebo-controlled treatment period; change in lung function, as measured by FEV1 (L) from baseline to Weeks 4 and 12, and FVC (L) and FEF25%-75% (L/sec) from baseline to Weeks 4, 12, 24, and the end point. Other secondary efficacy endpoints include incidence of IV antibiotic use during the 24-week placebo-controlled treatment period; number of days of IV antibiotic use during the 24-week placebo-controlled treatment period; incidence of new use of antipseudomonal antibiotics during the 24-week placebo-controlled treatment period; incidence of hospitalizations/ER visits for a respiratory-related complaint during the 24-week placebo-controlled treatment period; number of days spent in the hospital for a respiratory-related complaint during the 24-week placebo-controlled treatment period; changes from baseline to Weeks 12 and 24 in Health-related Quality of Life as measured by the Cystic Fibrosis Questionnare and the Feeling Thermometer; and changes in utility assessment from baseline to Weeks 12 and 24 as measured by the Health Utilities Index; number of CF-related days lost from work or school during the 24-week placebo-controlled treatment period; and responses at Week 24 to the Patient Questionnaire.

Molecule	FEV1 Change from baseline in Liters, Mean (Table 3) (baseline to Week 24) [L]	FEV1 Change from baseline in Liters, Mean (Table 2) (baseline to Week 24) [L]	adjusted means for change in lung function, as measured by FEV1, from baseline to Week 24 (macrolide users (97% azithromycin), 60 mg denufosol TID by inhalation, p-value 0.047 vs placebo group) [L]	improvement in FEV1 change in the macrolide group when treated with denufosol (vs placebo group) (macrolide users, baseline to Week 24)
CC[C@H]1OC(=O)[C@H](C)[C@@H](O[C@H]2C[C@@](C)(OC)[C@@H](O)[C@H](C)O2)[C@H](C)[C@@H](O[C@@H]2O[C@H](C)C[C@H](N(C)C)[C@H]2O)[C@](C)(O)C[C@@H](C)CN(C)[C@H](C)[C@@H](O)[C@]1(C)O [Macrolide (Azithromycin), azithromycin, reference compound]	0.0430	0.0430	–	–
Nc1ccn([C@H]2C[C@H](O)[C@@H](COP(=O)(O)OP(=O)(O)OP(=O)(O)OP(=O)(O)OC[C@H]3O[C@@H](n4ccc(=O)[nH]c4=O)[C@H](O)[C@@H]3O)O2)c(=O)n1 [Denufosol, P^1-(uridine 5′-)-P^4-(2′-deoxycytidine 5′-) tetraphosphate]	–	0.0494	0.0288	+0.0745 L
B1	0.0659	–	–	–
